Marks after values point to notes of the source that are not given here.
How the values were obtained:
Type in all cases: in vivo
Septoria tritici = test: Test D: preventive spray on wheat seedlings, visual disease rating (wheat leaf blotch)
Excerpt: (§1) General protocol for preparing test suspensions for Tests A-F: the test compounds were first dissolved in acetone in an amount equal to 3% of the final volume and then suspended at the desired concentration (in ppm) in acetone and purified water (50/50 mix by volume) containing 250 ppm of the surfactant Trem® 014 (polyhydric alcohol esters). The resulting test suspensions were then used in Tests A-F. Spraying a 200 ppm test suspension to the point of run-off on the test plants was the equivalent of a rate of 800 g/ha. Unless otherwise indicated, the rating values indicate a 200 ppm test suspension was used. (An asterisk “*” next to the rating value indicates a 40 ppm test suspension was used.)
(§2) The test suspension was sprayed to the point of run-off on wheat seedlings. The following day the seedlings were inoculated with a spore suspension of Septoria tritici (the causal agent of wheat leaf blotch) and incubated in saturated atmosphere at 24° C. for 48 h, and then moved to a growth chamber at 20° C. for 19 days, after which time visual disease ratings were made.
(§3) Results for Tests A-F are given in Table A. In the Table, a rating of 100 indicates 100% disease control and a rating of 0 indicates no disease control (relative to the controls). A dash (-) indicates no test results. An asterisk “*” next to the rating value indicates a 40 ppm test suspension was used.

[1] = test system: Puccinia recondite f. sp. tritici; test: Test E2: preventive spray on wheat seedlings, visual disease rating (wheat leaf rust)
Excerpt: as §1
The test suspension was sprayed to the point of run-off on wheat seedlings. The following day the seedlings were inoculated with a spore suspension of Puccinia recondite f. sp. tritici (the causal agent of wheat leaf rust) and incubated in a saturated atmosphere at 20° C. for 24 h, and then moved to a growth chamber at 20° C. for 7 days, after which time visual disease ratings were made.
as §3

Botrytis cinerea = test: Test A: preventive spray on tomato seedlings, visual disease rating (tomato Botrytis)
Excerpt: as §1
as §2, with “tomato” for “wheat”, “Botrytis cinerea” for “Septoria tritici”, “tomato Botrytis)” for “wheat leaf blotch)”, “20°” for “24°”, “24°” for “20°”, “3” for “19”
as §3

[2] = test system: Blumeria graminis f. sp. tritici; test: Test F: preventive spray on wheat seedlings, visual disease rating (wheat powdery mildew)
Excerpt: as §1
The test suspension was sprayed to the point of run-off on wheat seedlings. The following day the seedlings were inoculated with a spore dust of Blumeria graminis f. sp. tritici, (also known as Erysiphe graminis f. sp. tritici, the causal agent of wheat powdery mildew) and incubated in a growth chamber at 20° C. for 8 days, after which time visual disease ratings were made.
as §3

[3] = asterisk: 40 ppm test suspension
[4] = no asterisk: standard test suspension, not 40 ppm, 100 = 100% disease control, 0 = none
[5] = no asterisk: standard test suspension, not 40 ppm

Compound	Test D rating (% disease control) (Septoria tritici; [3])	Test E2 rating (% disease control) [1, 3]	Test A rating (% disease control) (Botrytis cinerea; [3])	Test F rating (% disease control) [2, 3]	Test A rating (% disease control) (Botrytis cinerea; [4])	Test F rating (% disease control) [2, 5]	Test D rating (% disease control) (Septoria tritici; [5])	Test E2 rating (% disease control) [1, 5]	also measured
Cc1nn(C)c(-c2c(F)cccc2Cl)c1C(SC#N)c1ccc(F)cc1Cl (stereo not shown) [Compound 121]	100* %	100* %	97* %	100* %	–	–	–	–	–
COc1ccc(C(O)c2c(C)nn(C)c2-c2ccc(F)cc2Cl)c(Cl)c1 (stereo not shown) [compound 169]	68* %	88* %	0* %	0* %	–	–	–	–	–
COc1cc(F)c(-c2c(C(O)c3ccc(F)cc3Cl)c(C)nn2C)c(F)c1 (stereo not shown) [compound 171]	100* %	100* %	100* %	89* %	–	–	–	–	–
Cc1nn(C)c(-c2c(F)cccc2Cl)c1C(SC#N)c1ccc(F)cc1F (stereo not shown) [Compound 122]	100* %	100* %	98* %	99* %	–	–	–	–	–
Cc1nn(C)c(-c2ccc(F)cc2Br)c1C(O)c1ccc(F)cc1Cl (stereo not shown) [compound 95]	99* %	98* %	94* %	95* %	–	–	–	–	–
Cn1nc(Br)c(C(O)c2ccc(F)cc2Br)c1-c1c(F)cccc1Cl (stereo not shown) [compound 132]	100* %	99* %	–	–	0%	100%	–	–	–
COc1nn(C)c(-c2c(F)cccc2Cl)c1C(O)c1ccc(F)cc1Cl (stereo not shown) [compound 120]	–	–	–	–	100%	100%	100%	100%	–
Cc1nn(C)c(-c2ccc(Cl)cc2Cl)c1C(O)c1ccc(F)cc1F (stereo not shown) [compound 97]	–	–	–	–	99%	99%	100%	100%	–
Cc1nn(C)c(-n2ccnc2C)c1C(O)c1ccc(F)cc1F (stereo not shown) [compound 146]	–	–	–	–	0%	0%	18%	17%	–
Cc1cc(C)n(-c2c(C(O)c3ccc(F)cc3C)c(C)nn2C)n1 (stereo not shown) [compound 158]	–	–	–	–	0%	13%	8%	0%	–
Cn1nc(Br)c(C(O)c2ccc(Cl)cc2Cl)c1-c1c(F)cccc1F (stereo not shown) [compound 163]	–	–	–	–	100%	98%	100%	100%	–
Cn1nc(Br)c(C(O)c2ccc(F)cc2Cl)c1-c1c(F)cccc1Cl (stereo not shown) [compound 148]	–	–	–	–	100%	99%	100%	100%	–
COc1nn(C)c(-c2c(F)cccc2F)c1C(O)c1ccc(F)cc1C (stereo not drawn) [Compound 157, 5-(2,6-difluorophenyl)-α-(4-fluoro-2-methylphenyl)-3-methoxy-1-methyl-1H-pyrazole-4-methanol]	–	–	–	–	–	–	–	–	pest or weed control at 40 ppm (Septoria tritici; Zymoseptoria tritici, 504 h, asterisk: 40 ppm test suspension): 100%; pest or weed control at 40 ppm ([1]; 192 h, asterisk: 40 ppm test suspension): 100%; pest or weed control at 40 ppm (Botrytis cinerea; Botrytis cinerea, 120 h, asterisk: 40 ppm test suspension): 100%; pest or weed control at 40 ppm ([2]; Blumeria graminis, 192 h, asterisk: 40 ppm test suspension): 100%
Cn1nc(Br)c(C(O)c2ccc(F)cc2Br)c1-c1ccc(F)cc1Cl (stereo not shown) [compound 164]	–	–	–	–	100%	0%	100%	100%	–
COc1nn(C)c(-c2c(F)cccc2F)c1C(O)c1c(F)ccc(F)c1F (stereo not shown) [compound 138]	16* %	55* %	66* %	93* %	–	–	–	–	–
COc1cc(F)c(-c2c(C(O)c3c(F)cc(F)cc3F)c(C)nn2C)c(F)c1 (stereo not shown) [compound 173]	100* %	100* %	87* %	95* %	–	–	–	–	–
Cc1nn(C)c(-c2ccc(F)cc2I)c1C(O)c1ccc(F)cc1Cl (single isomer, unassigned) [compound 104]	98* %	97* %	0* %	72* %	–	–	–	–	–

Compound	Test D rating (% disease control) (Septoria tritici; [3])	Test E2 rating (% disease control) [1, 3]	Test A rating (% disease control) (Botrytis cinerea; [3])	Test F rating (% disease control) [2, 3]	Test A rating (% disease control) (Botrytis cinerea; [4])	Test F rating (% disease control) [2, 5]	Test D rating (% disease control) (Septoria tritici; [5])	Test E2 rating (% disease control) [1, 5]	also measured
Cn1ncc(C(O)c2ccc(F)cc2Cl)c1-c1c(F)cccc1F (stereo not shown) [compound 130]	–	–	–	–	100%	100%	100%	100%	–
COc1ccc(C(O)c2c(OC)nn(C)c2-c2c(F)cccc2F)c(F)c1 (stereo not shown) [compound 161]	100* %	92* %	94* %	90* %	–	–	–	–	–
Cn1nc(Br)c(C(O)c2ccc(F)cc2F)c1-c1c(F)cccc1F (stereo not shown) [compound 124]	–	–	–	–	99%	100%	100%	100%	–
Cc1cc(F)ccc1C(O)c1c(C)nn(C)c1-c1c(F)cccc1F (stereo not shown) [compound 129]	–	–	–	–	100%	100%	100%	99%	–
Cc1nn(C)c(-c2c(F)cncc2F)c1C(O)c1ccc(F)cc1F (stereo not shown) [compound 168]	100* %	88* %	21* %	100* %	–	–	–	–	–
Cc1nn(C)c(-c2c(Cl)cncc2Cl)c1C(O)c1ccc(F)cc1F (stereo not shown) [compound 167]	58* %	0* %	0* %	0* %	–	–	–	–	–
Cn1nc(Br)c(C(O)c2ccc(F)cc2Cl)c1-c1ccc(F)cc1Cl (stereo not shown) [compound 125]	–	–	–	–	82%	87%	100%	100%	–
COc1nn(C)c(-c2c(F)cc(F)cc2F)c1C(O)c1ccc(F)cc1F (stereo not shown) [compound 153]	100* %	100* %	100* %	100* %	–	–	–	–	–
COc1nn(C)c(-c2c(F)cccc2F)c1C(O)c1ccc(F)cc1F (stereo not shown) [compound 156]	100* %	99* %	100* %	99* %	–	–	–	–	–
Cc1nn(C)c(-c2ccc(Cl)cc2Cl)c1C(O)c1ccc(Cl)cc1F (stereo not shown) [compound 101]	–	–	–	–	–	72%	100%	99%	–
COc1ccc(C(O)c2c(C)nn(C)c2-c2c(F)cccc2Cl)c(Cl)c1 (stereo not shown) [compound 170]	100* %	100* %	100* %	98* %	–	–	–	–	–
Cc1nn(C)c(-c2c(F)cc(C#N)cc2F)c1C(O)c1ccc(F)cc1F (stereo not shown) [compound 112]	–	–	–	–	80%	97%	100%	100%	–
COc1nn(C)c(-c2ccc(F)cc2Cl)c1C(O)c1ccc(F)cc1Cl (stereo not shown) [compound 118]	–	–	–	–	100%	100%	100%	99%	–
Cc1cc(F)ccc1C(O)c1c(Br)nn(C)c1-c1c(F)cccc1F (stereo not shown) [compound 165]	–	–	–	–	100%	100%	100%	100%	–
Cc1cc(C)n(-c2c(C(O)c3ccc(F)cc3F)c(C)nn2C)n1 (stereo not shown) [compound 159]	–	–	–	–	0%	0%	0%	0%	–
Cc1nn(C)c(-c2ccc(Cl)cc2Cl)c1C(O)c1ccc(F)cc1Cl (stereo not shown) [compound 100]	–	–	–	–	–	99%	100%	100%	–

Reference: patent US8754115B2, “Fungicidal pyrazoles” (E I du Pont de Nemours and Company, priority 2010, dated 2014)
